As a reminder, the Ki is a measure of affinity in units of concentration, obtained from inhibition or displacement. Read a low Ki as higher affinity.

The assay deals with Cannabinoid receptor 1 (Rattus norvegicus, UniProt P20272). In words: Cannabinoid receptor 1 binding affinity by measuring its ability to displace [3H]WIN-55212-2 in rat forebrain membranes. The assay is classed as cell membranes, Membrane.
Sequence of Cannabinoid receptor 1 (P20272 whole entry): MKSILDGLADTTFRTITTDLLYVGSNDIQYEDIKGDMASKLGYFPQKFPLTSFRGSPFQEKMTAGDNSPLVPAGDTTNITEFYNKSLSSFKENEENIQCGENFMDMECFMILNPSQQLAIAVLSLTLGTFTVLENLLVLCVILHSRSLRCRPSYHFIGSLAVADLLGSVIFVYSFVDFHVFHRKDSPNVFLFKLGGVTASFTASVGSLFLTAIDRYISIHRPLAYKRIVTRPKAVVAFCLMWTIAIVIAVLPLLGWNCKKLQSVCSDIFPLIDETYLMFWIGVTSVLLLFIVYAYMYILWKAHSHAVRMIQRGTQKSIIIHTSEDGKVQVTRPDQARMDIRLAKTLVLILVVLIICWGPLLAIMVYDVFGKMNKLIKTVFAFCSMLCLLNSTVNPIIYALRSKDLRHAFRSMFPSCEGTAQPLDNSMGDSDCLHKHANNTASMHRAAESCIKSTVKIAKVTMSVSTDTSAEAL

In turn, `Cc1c(C(=O)c2cccc(Cl)c2)c2ccccc2n1CCN1CCOCC1` gave a Ki of 955 µM.

In turn, `Cc1ccc(C(=O)c2c(C)n(CCN3CCOCC3)c3ccccc23)cc1` gave an inhibitory constant (Ki) of 708 µM.

For `COc1ccc(C(=O)c2c(C)n(CCN3CCOCC3)c3c(C)cccc23)cc1`, the Ki is 832 µM.

Take `COc1ccc(C(=O)c2c(C)n(CCN3CCOCC3)c3cc(C)ccc23)cc1`: affinity was put at a Ki of 676 µM.

The molecule `COc1ccc(C(=O)c2c(C)n(CCN3CCOCC3)c3cc(OC)ccc23)cc1` gave a Ki of 871 µM.

`O=C(c1c2ccccc2cc2ccccc12)c1cn(CCN2CCOCC2)c2ccccc12` had a Ki of 427 µM.

The values above are taken from ChEMBL document CHEMBL1131171, “Three-dimensional quantitative structure-activity relationship study of the cannabimimetic (aminoalkyl)indoles using comparative molecular field analysis” (J Med Chem, 1998).
